From patent publication US8076487B2, “Pyridone derivative and herbicide” (Kumiai Chemical Industry Co., Ltd., priority 2006, dated 2011)

Columns and labels:
Assay type in all cases: in vivo
[1] = test system: Japanese bulrush (Scirpus juncoides Roxb.); test: Test Example 1: herbicidal effect by soil application to paddy field; settings: paddy field soil application; active ingredient 1,000 g per 1 hectare; wettable powder added dropwise to water surface the day after sowing; examined on the 21st day after application
Outline: (§1)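 Plants were sown in flooded (3 cm) paddy soil and evaluated for herbicidal effect 21 days after soil application in a greenhouse.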

[2] = test system: early watergrass (Echinochloa oryzicola Vasing); test: as above; settings: paddy field soil application; active ingredient 1,000 g per 1 hectare; wettable powder added dropwise to water surface the day after sowing; examined on the 21st day after application
Outline: as §1

[3] = test system: heartshape false pickerelweed (Monochoria vaginalis (Burm.f.) C.Presl); test: as above; settings: paddy field soil application; active ingredient 1,000 g per 1 hectare; wettable powder added dropwise to water surface the day after sowing; examined on the 21st day after application
Outline: as §1

[4] = test system: slender amaranth (Amaranthus viridis L.); test: Test Example 3: herbicidal effect by application to upland field (foliage treatment); settings: 14th day after application; for herbicidal effect (index), Slender Amaranth: foliage treatment, plants grown two weeks, 1,000 g active ingredient per hectare; for herbicidal effect, Slender Amaranth: foliage treatment, 1,000 g active ingredient per 1 hectare, greenhouse
Protocol: (§2) [table] Test Example 3 Test on Herbicidal Effect by Application to Upland Field In a 80 cm2 plastic pot, field soil was filled. Seeds of barnyardgrass (Echinochloa crus-galli (L.) P. Beauv. var. crus-galli), green foxtail (Setaria viridis (L.) P. Beauv.), velvetleaf (Abutilon theophrasti medicus), and slender amaranth (Amaranthus viridis L.) were sown and allowed to grow for two weeks in a greenhouse. Thereafter, the wettable powder prepared according to Formulation Example 1 was diluted in water and a 1,000 liter equivalent amount per 1 hectare so that the active ingredient becomes 1,000 g per 1 hectare was sprayed using a small sprayer from a top of the plants through its entire body for foliage treatment. Then, on the 14th day after the application to the plants grew in a greenhouse, the herbicidal effect was examined in accordance with a standard shown in Table 34.

[5] = test system: velvetleaf (Abutilon theophrasti medicus); test: as above; settings: 14th day after application; for herbicidal effect (index), Velvetleaf: foliage treatment, plants grown two weeks, 1,000 g active ingredient per hectare; for herbicidal effect, Velvetleaf: foliage treatment, 1,000 g active ingredient per 1 hectare, greenhouse
Protocol: as §2

[6] = test system: green foxtail (Setaria viridis (L.) P. Beauv.); test: as above; settings: 14th day after application; for herbicidal effect (index), Green Foxtail: foliage treatment, plants grown two weeks, 1,000 g active ingredient per hectare; for herbicidal effect, Green Foxtail: foliage treatment, 1,000 g active ingredient per 1 hectare, greenhouse
Protocol: as §2

[7] = test system: barnyardgrass (Echinochloa crus-galli (L.) P. Beauv. var. crus-galli); test: as above; settings: 14th day after application; for herbicidal effect (index), Barnyardgrass: foliage treatment, plants grown two weeks, 1,000 g active ingredient per hectare; for herbicidal effect, Barnyardgrass: foliage treatment, 1,000 g active ingredient per 1 hectare, greenhouse
Protocol: as §2

Compound	herbicidal effect, Scirpus juncoides Roxb. [1]	herbicidal effect, Echinochloa oryzicola Vasing [2]	herbicidal effect, Monochoria vaginalis (Burm. f.) C. Presl [3]	herbicidal effect (index), Slender Amaranth [4]	herbicidal effect (index), Velvetleaf [5]	herbicidal effect (index), Green Foxtail [6]	herbicidal effect (index), Barnyardgrass [7]	herbicidal effect, Slender Amaranth [4]	herbicidal effect, Velvetleaf [5]	herbicidal effect, Green Foxtail [6]	herbicidal effect, Barnyardgrass [7]
CC(CCn1c(C(F)(F)F)ccc(C(=O)C2=C(O)CCCC2=O)c1=O)=C(F)F [I-27]	5 (90% or more of herbicidal effect and crop phytotoxicity)	5 (90% or more of herbicidal effect and crop phytotoxicity)	5 (90% or more of herbicidal effect and crop phytotoxicity)	5 (90% or more of herbicidal effect and crop phytotoxicity)	5 (90% or more of herbicidal effect and crop phytotoxicity)	3 (50 to less than 70% of herbicidal effect and crop phytotoxicity)	4 (70 to less than 90% of herbicidal effect and crop phytotoxicity)				
CC(CCCCn1c(C(F)(F)F)ccc(C(=O)C2=C(O)CCCC2=O)c1=O)=C(F)F [I-28]	4 (70 to less than 90% of herbicidal effect and crop phytotoxicity)	5 (90% or more of herbicidal effect and crop phytotoxicity)	5 (90% or more of herbicidal effect and crop phytotoxicity)	5 (90% or more of herbicidal effect and crop phytotoxicity)	5 (90% or more of herbicidal effect and crop phytotoxicity)	5 (90% or more of herbicidal effect and crop phytotoxicity)	5 (90% or more of herbicidal effect and crop phytotoxicity)				
COCCCn1c(C(F)(F)F)ccc(C(=O)C2=C(O)CCCC2=O)c1=O [I-42]	5 (90% or more of herbicidal effect and crop phytotoxicity)	5 (90% or more of herbicidal effect and crop phytotoxicity)	5 (90% or more of herbicidal effect and crop phytotoxicity)	5 (90% or more of herbicidal effect and crop phytotoxicity)	5 (90% or more of herbicidal effect and crop phytotoxicity)	5 (90% or more of herbicidal effect and crop phytotoxicity)	5 (90% or more of herbicidal effect and crop phytotoxicity)				
CC(Cn1c(C(F)(F)F)ccc(C(=O)C2=C(O)CCCC2=O)c1=O)OCc1ccccc1 (stereo not drawn) [I-43]	5 (90% or more of herbicidal effect and crop phytotoxicity)	5 (90% or more of herbicidal effect and crop phytotoxicity)	4 (70 to less than 90% of herbicidal effect and crop phytotoxicity)	5 (90% or more of herbicidal effect and crop phytotoxicity)	5 (90% or more of herbicidal effect and crop phytotoxicity)	4 (70 to less than 90% of herbicidal effect and crop phytotoxicity)	5 (90% or more of herbicidal effect and crop phytotoxicity)				
CS(=O)(=O)Cn1c(C(F)(F)F)ccc(C(=O)C2=C(O)CCCC2=O)c1=O [I-47]	5 (90% or more of herbicidal effect and crop phytotoxicity)	5 (90% or more of herbicidal effect and crop phytotoxicity)	5 (90% or more of herbicidal effect and crop phytotoxicity)	5 (90% or more of herbicidal effect and crop phytotoxicity)	5 (90% or more of herbicidal effect and crop phytotoxicity)	4 (70 to less than 90% of herbicidal effect and crop phytotoxicity)	5 (90% or more of herbicidal effect and crop phytotoxicity)				
O=C1CCCC(O)=C1C(=O)c1ccc(C(F)(F)F)n(CSC2CCCCC2)c1=O [I-61]	4 (70 to less than 90% of herbicidal effect and crop phytotoxicity)	5 (90% or more of herbicidal effect and crop phytotoxicity)	5 (90% or more of herbicidal effect and crop phytotoxicity)	5 (90% or more of herbicidal effect and crop phytotoxicity)	5 (90% or more of herbicidal effect and crop phytotoxicity)	4 (70 to less than 90% of herbicidal effect and crop phytotoxicity)	5 (90% or more of herbicidal effect and crop phytotoxicity)				
CSCCCn1c(C(F)(F)F)ccc(C(=O)C2=C(O)CCCC2=O)c1=O [I-69]	5 (90% or more of herbicidal effect and crop phytotoxicity)	5 (90% or more of herbicidal effect and crop phytotoxicity)	5 (90% or more of herbicidal effect and crop phytotoxicity)	5 (90% or more of herbicidal effect and crop phytotoxicity)	5 (90% or more of herbicidal effect and crop phytotoxicity)	5 (90% or more of herbicidal effect and crop phytotoxicity)	5 (90% or more of herbicidal effect and crop phytotoxicity)				
COc1ccc(-n2c(C(F)(F)F)ccc(C(=O)C3=C(O)CCCC3=O)c2=O)cc1 [I-78]	5 (90% or more of herbicidal effect and crop phytotoxicity)	5 (90% or more of herbicidal effect and crop phytotoxicity)	5 (90% or more of herbicidal effect and crop phytotoxicity)	5 (90% or more of herbicidal effect and crop phytotoxicity)	5 (90% or more of herbicidal effect and crop phytotoxicity)	5 (90% or more of herbicidal effect and crop phytotoxicity)	5 (90% or more of herbicidal effect and crop phytotoxicity)				
O=C1CCCC(O)=C1C(=O)c1ccc(C(F)(F)F)n(-c2c(F)cccc2F)c1=O [I-104]	5 (90% or more of herbicidal effect and crop phytotoxicity)	5 (90% or more of herbicidal effect and crop phytotoxicity)	5 (90% or more of herbicidal effect and crop phytotoxicity)	5 (90% or more of herbicidal effect and crop phytotoxicity)	5 (90% or more of herbicidal effect and crop phytotoxicity)	4 (70 to less than 90% of herbicidal effect and crop phytotoxicity)	5 (90% or more of herbicidal effect and crop phytotoxicity)				
O=C1CCCC(O)=C1C(=O)c1ccc(C(F)(F)F)n(Cc2cccc([N+](=O)[O-])c2)c1=O [I-116]	5 (90% or more of herbicidal effect and crop phytotoxicity)	5 (90% or more of herbicidal effect and crop phytotoxicity)	5 (90% or more of herbicidal effect and crop phytotoxicity)					5 (90% or more of herbicidal effect and crop phytotoxicity)	5 (90% or more of herbicidal effect and crop phytotoxicity)	3 (50 to less than 70% of herbicidal effect and crop phytotoxicity)	5 (90% or more of herbicidal effect and crop phytotoxicity)
Cn1nc(C(F)(F)F)c(Cn2c(C(F)(F)F)ccc(C(=O)C3=C(O)CCCC3=O)c2=O)c1OC(F)F [I-127]	3 (50 to less than 70% of herbicidal effect and crop phytotoxicity)	4 (70 to less than 90% of herbicidal effect and crop phytotoxicity)	4 (70 to less than 90% of herbicidal effect and crop phytotoxicity)					5 (90% or more of herbicidal effect and crop phytotoxicity)	5 (90% or more of herbicidal effect and crop phytotoxicity)	5 (90% or more of herbicidal effect and crop phytotoxicity)	5 (90% or more of herbicidal effect and crop phytotoxicity)
O=C1CCCC(O)=C1C(=O)c1ccc(C(F)(F)F)n(CC2OCCO2)c1=O [I-138]	5 (90% or more of herbicidal effect and crop phytotoxicity)	5 (90% or more of herbicidal effect and crop phytotoxicity)	5 (90% or more of herbicidal effect and crop phytotoxicity)					5 (90% or more of herbicidal effect and crop phytotoxicity)	5 (90% or more of herbicidal effect and crop phytotoxicity)	4 (70 to less than 90% of herbicidal effect and crop phytotoxicity)	5 (90% or more of herbicidal effect and crop phytotoxicity)
